Experiments:
[1] = biological target: T1, PPARδ (Homo sapiens, UniProt Q03181); assay: PPARδ binding assay (SPA); conditions: concentrations up to 10 μM
T1 construct: made in house; host or cells: HEK293 (cell lysates)
T1 sequence (Q03181 1-441): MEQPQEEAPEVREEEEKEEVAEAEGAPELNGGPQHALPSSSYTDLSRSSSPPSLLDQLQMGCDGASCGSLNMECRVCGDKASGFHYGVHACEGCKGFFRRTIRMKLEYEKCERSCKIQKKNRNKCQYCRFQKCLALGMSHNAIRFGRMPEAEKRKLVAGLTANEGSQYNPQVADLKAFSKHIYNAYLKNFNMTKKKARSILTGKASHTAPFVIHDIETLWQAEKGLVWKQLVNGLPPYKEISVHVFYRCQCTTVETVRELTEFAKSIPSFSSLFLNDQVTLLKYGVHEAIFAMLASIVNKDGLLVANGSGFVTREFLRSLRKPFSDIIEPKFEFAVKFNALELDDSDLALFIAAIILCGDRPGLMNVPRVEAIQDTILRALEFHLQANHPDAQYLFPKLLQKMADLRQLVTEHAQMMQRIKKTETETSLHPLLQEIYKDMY
T1 sequence (P19793 1-462 partner): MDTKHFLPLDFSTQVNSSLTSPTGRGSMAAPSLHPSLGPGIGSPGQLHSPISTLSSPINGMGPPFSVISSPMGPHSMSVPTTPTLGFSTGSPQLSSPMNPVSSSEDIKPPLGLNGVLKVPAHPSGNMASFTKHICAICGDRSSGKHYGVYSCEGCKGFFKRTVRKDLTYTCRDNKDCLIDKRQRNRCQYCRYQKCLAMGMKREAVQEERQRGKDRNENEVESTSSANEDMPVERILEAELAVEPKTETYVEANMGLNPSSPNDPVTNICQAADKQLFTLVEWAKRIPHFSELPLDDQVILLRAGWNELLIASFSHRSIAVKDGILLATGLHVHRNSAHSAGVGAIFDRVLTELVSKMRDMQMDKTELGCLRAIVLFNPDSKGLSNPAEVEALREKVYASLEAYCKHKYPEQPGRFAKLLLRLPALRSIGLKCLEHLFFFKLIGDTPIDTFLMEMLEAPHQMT
Protocol: (§1) Because GPR40 is known to be activated by ligands to PPARγ exemplified compounds are examined in PPARα, PPARδ, and PPARγ binding and functional assays to determine the selectivity of exemplified compounds for GPR40. Compounds exemplified herein are tested essentially as described below for PPAR binding and generally have binding values greater than 1000 nM with 10 μM concentrations of test compound and are thus considered negative for PPAR activity.
(§2) Binding affinities of compounds for the PPAR α, δ, and γ receptors are assessed using Scintillation Proximity Assay (SPA) technology. Biotinylated oligonucleotide Direct Repeat 2 (DR2) is used for binding the receptors to Yttrium silicate streptavidin-coated SPA beads. […] Non-specific binding is determined in the presence of 10,000 nM of the unlabeled PPAR α/δ dual agonist reference compound for the alpha and delta receptor assays and the PPARγ agonist reference compound for the gamma receptor assay. The binding reaction (100 μl per well in a 96 well [Costar 3632] plate) is incubated for 10 h and counted disintegration per minutes (dpm) on a Wallac Microbeta. Receptor binding affinity (IC50) for the compounds is determined by fitting an 11 point concentration-response curve with a 4-paramater logistic equation. K, is determined from the IC50 using the Cheng-Prussoff equation and Kd determined by saturation binding. […]

[2] = biological target: T2, PPARα (Homo sapiens, UniProt Q07869); assay: PPARα binding assay (SPA); conditions: concentrations up to 10 μM
T2 construct: made in house; host or cells: HEK293 (cell lysates)
T2 sequence (Q07869 1-468): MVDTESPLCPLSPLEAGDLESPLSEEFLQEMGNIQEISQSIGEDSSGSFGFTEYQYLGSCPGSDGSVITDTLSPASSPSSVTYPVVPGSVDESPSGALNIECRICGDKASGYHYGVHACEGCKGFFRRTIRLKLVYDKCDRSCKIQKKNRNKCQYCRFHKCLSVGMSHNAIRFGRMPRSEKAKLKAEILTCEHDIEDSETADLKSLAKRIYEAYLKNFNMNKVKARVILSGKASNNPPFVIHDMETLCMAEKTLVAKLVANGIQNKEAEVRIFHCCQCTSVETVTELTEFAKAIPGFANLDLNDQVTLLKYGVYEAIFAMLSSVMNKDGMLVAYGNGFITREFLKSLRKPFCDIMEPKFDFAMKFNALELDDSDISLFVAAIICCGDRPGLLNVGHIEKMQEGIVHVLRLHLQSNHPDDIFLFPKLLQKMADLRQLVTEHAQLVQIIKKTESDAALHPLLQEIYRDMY
T2 sequence (P19793 1-462 partner): T1 sequence (P19793 1-462 partner)
Protocol: as §1, §2

**Q.** With `CC#C[C@@H](CC(=O)O)c1ccc(OCc2ccc(CN3CCC4(C=Cc5ccccc54)CC3)s2)cc1` [Example 1, (3S)-3-[4-[[5-(Spiro[indene-1,4′-piperidine]-1′-ylmethyl)-2-thienyl]methoxy]phenyl]hex-4-ynoic acid] as the compound, how does the PPARδ binding [1] read?
**A.** The PPARδ binding was “no binding is detected”.

**Q.** What about the PPARα binding [2] of the same compound?
**A.** Its PPARα binding is “no binding is detected”.
